Test results published in patent publication US6489098B1, “Means and methods for monitoring nucleoside reverse transcriptase inhibitor antiretroviral therapy and guiding therapeutic decisions in the treatment of HIV/AIDS” (ViroLogic, Inc., priority 1998, dated 2002).
Where “and” joins values, the source holds several entries; their conditions need not be identical. Identical values can stand only once. Entries after “also recorded” stand apart in the source; their conditions may differ.

What was measured:
[1] = tested on: HIV-1 RT mutant resistance test vector A62V+T69SSA; test: Phenotypic susceptibility assay, site directed RTV A62V+T69SSA; type: cell-based; settings: for Average fold reduction in susceptibility: RTV with 62 + 69 (A62V+T69SSA), 4 replicates; for effect on susceptibility (words): RTV with A62V+T69SSA, compared with T69SSA alone
Experimental: (§1) Resistance tests were carried out with resistance test vectors using two host cell types. Resistance test vector viral particles were produced by a first host cell (the resistance test vector host cell) that was prepared by transfecting a packaging host cell with the resistance test vector and the packaging expression vector. The resistance test vector viral particles were then used to infect a second host cell (the target host cell) in which the expression of the indicator gene is measured.
(§2) The resistance test vectors containing a functional luciferase gene cassette were constructed and host cells were transfected with the resistance test vector DNA. The resistant test vectors contained patient-derived reverse transcriptase and protease sequences that were either susceptible or resistant to the antiretroviral agents, such as nucleoside reverse transcriptase inhibitors, non-nucleoside reverse transcriptase inhibitors and protease inhibitors. The resistance test vector viral particles produced by transfecting the resistance test vector DNA into host cells, either in the presence or absence of protease inhibitors, were used to infect target host cells grown either in the absence of NRTI or NNRTI or In the presence of increasing concentrations of the drug. The amount of luciferase activIty produced in infected target host cells in the presence of drug was compared to the amount of luciferase produced in infected target host cells in the absence of drug. Drug resistance was measured as the amount of drug required to inhibit by 50% the luciferase activity detected in the absence of drug (Inhibitory concentration 50%, IC50). The IC50 values were determined by plotting percent drug inhibition vs. log 10 drug concentration.
(§3) Host cells were seeded in 10-cm-diameter dishes and were transfected several days after plating with resistance test vector plasmid DNA and the envelope expression vector. Transfections were performed using a calcium-phosphate precipitation procedure. The cell culture media containing the DNA precipitate was replaced with fresh medium, from one to 24 hours, after transfection. Cell culture media containing resistance test vector viral particles was harvested one to four days after transfection and was passed through a […] filter before being stored at −80° C. HIV capsid protein (p24) levels in the harvested cell culture media were determined by an EIA method as described by the manufacturer (SIAC; Frederick, Md.). Before infection, target cells (293 and 293/T) were plated in cell culture media. Control infections were performed using cell culture media from mock transfections (no DNA) or transfections containing the resistance test vector plasmid DNA without the envelope expression plasmid. One to three or more days after infectIon the media was removed and cell lysis buffer (Promega) was added to each well. Cell lysates were assayed for luciferase activity (FIG. 3). The inhibitory effect of the drug was determined using the following equation:
(§4) % luciferase inhibition=1−(RLUluc[drug]÷RLUluc)×100
(§5) where RLUluc [drug] is the relative light unit of luciferase activity in infected cells in the presence of drug and RLUluc is the Relative Light Unit of luciferase activity in infected cells in the absence of drug. IC50 values were obtained from the sigmoidal curves that were generated from the data by plotting the percent inhibition of luciferase activity vs. the log 10 drug concentration. The drug inhibition curves are shown in (FIG. 3).
(§6) Genotypic changes that are observed to correlate with changes in phenotypic patterns of drug susceptibility are evaluated by construction of resistance test vectors containing the specific mutation on a defined, wild-type (drug susceptible) genetic background. Mutations may be incorporated alone and/or in combination with other known drug resistance mutations that are thought to modulate the susceptibility of HIV to a certain drug or class of drugs. […]

[2] = tested on: HIV-1 RT mutant resistance test vector 41 + 215 (M41L and T215Y); test: Phenotypic susceptibility assay, site directed RTV 41 + 215; type: cell-based; settings: RTV with 41 + 215; 4 replicates
Experimental: as §1, §2, §3, §4, §5, §6

[3] = tested on: HIV-1 RT mutant resistance test vector M41L-T69SSA-T215Y-RTV; test: Phenotypic susceptibility assay, site directed RTV M41L+T69SSA+T215Y; type: cell-based; settings: for Average fold reduction in susceptibility: RTV with 41 + 69 + 215 (M41L, T69SSA, T215Y), 2 replicates; for effect on susceptibility (words): RTV with M41L+T69SSA+T215Y
Experimental: as §1, §2, §3, §4, §5, §6

[4] = tested on: HIV with multi-nucleoside resistance complex (A62V, V75I, F77L, Y116F and Q115M); settings: cited from earlier work
[5] = tested on: HIV-1 RT mutant resistance test vector V75I; test: Phenotypic susceptibility assay, site directed RTV V75I; type: cell-based; settings: RTV with V75I vs wild type RTV
Experimental: as §1
as §2, with “The amount of luciferase activIty produced in infected target host cells in the presence of drug was compared to the amount of luciferase produced in infected target host cells in the absence of drug. Drug resistance was measured as the amount of drug required to inhibit by 50% the luciferase activity detected in the absence of drug (Inhibitory concentration 50%, IC50).” left out
(§7) Host cells were seeded in 10-cm-diameter dishes and were transfected several days after plating with resistance test vector plasmid DNA and the envelope expression vector. […] HIV capsid protein (p24) levels in the harvested cell culture media were determined by an EIA method as described by the manufacturer (SIAC; Frederick, Md.). […] The inhibitory effect of the drug was determined using the following equation: […]
(§8) Genotypic changes that are observed to correlate with changes in phenotypic patterns of drug susceptibility are evaluated by construction of resistance test vectors containing the specific mutation on a defined, wild-type (drug susceptible) genetic background. […]

[6] = tested on: resistance test vectors containing five (M41L, D67N, K70R, T215Y, K219Q) or six (M41L, D67N, K70R, L210W, T215Y, K219Q) AZT resistance associated mutations; test: Phenotypic susceptibility assay, site directed RTVs with five or six AZT resistance associated mutations; type: cell-based, HIV-1
Experimental: as §1
(§9) The resistance test vectors containing a functional luciferase gene cassette were constructed and host cells were transfected with the resistance test vector DNA. […] The IC50 values were determined by plotting percent drug inhibition vs. log 10 drug concentration.
as §7

[7] = tested on: HIV-1 RT mutant resistance test vector V75V; test: Phenotypic susceptibility assay, site directed RTV V75V; type: cell-based; settings: for effect on susceptibility (words): RTV with V75V
Experimental: as §1
as §2, with “The amount of luciferase activIty produced in infected target host cells in the presence of drug was compared to the amount of luciferase produced in infected target host cells in the absence of drug. Drug resistance was measured as the amount of drug required to inhibit by 50% the luciferase activity detected in the absence of drug (Inhibitory concentration 50%, IC50).” left out
as §7, §8

[8] = tested on: HIV-1 RT mutant resistance test vector A62V+V75I; test: Phenotypic susceptibility assay, site directed RTV A62V+V75I; type: cell-based; settings: RTV with A62V+V75I
Experimental: as §1, §9, §7

[9] = tested on: HIV-1 RT mutant resistance test vector T69SSA and V75I; test: Phenotypic susceptibility assay, site directed RTV T69SSA+V75I; type: cell-based; settings: V75I added onto the T69SSA background
Experimental: as §1, §9, §7

[10] = tested on: HIV-1 RT mutant resistance test vector V75I+Q151M; test: Phenotypic susceptibility assay, site directed RTV V75I+Q151M; type: cell-based; settings: RTV with V75I+Q151M
Experimental: as §1, §9, §7

[11] = tested on: RTV clone 285-1 (T69SSA) versus revertant 285-1 (SSA69T); test: Phenotypic susceptibility assay, patient 285 clone and T69SSA revertant; type: cell-based, HIV-1; settings: T69SSA→SSA69T in a clone of a patient's virus
[12] = tested on: HIV with RT mutation at codon 50; settings: mutation at codon 50, in vitro; cited from earlier work
HIV clinical isolates = settings: cited from earlier work
[13] = tested on: HIV with RT Lys65→Arg mutation; settings: Lys65→Arg (K65R); cited from earlier work

Row | Compound | Average fold reduction in susceptibility [1] | Average fold reduction in susceptibility [2] | Average fold reduction in susceptibility [3] | fold reduction in susceptibility ([4]; A62V, V75I, F77L, Y116F and Q115M) | effect on susceptibility (words) [1] | effect on susceptibility (words) [3] | effect on susceptibility (words) [5] | effect on susceptibility (words) [6] | effect on susceptibility (words) [7] | effect on susceptibility (words) [8] | effect on susceptibility (words) [9] | effect on susceptibility (words) ([5]; listed as d4t) | effect on susceptibility (words) [10] | fold reduction in susceptibility ([7]; RTV with V75V vs control RTV) | effect of reversion of the T69SSA mutation [11] | fold reduction in sensitivity [12] | cross-resistance of isolates with substitutions at codons 62, 75, 77, 116 and 115 ([4]; patients on prolonged ZDV plus ddI or ddC) | fold reduction in susceptibility for each ten-fold decrease in ZDV sensitivity (HIV clinical isolates) | fold increase in IC50 / reduction in susceptibility [13]
1 | Nc1nc(NC2CC2)c2ncn([C@H]3C=C[C@@H](CO)C3)c2n1 [ABC, abacavir] | 2.71 fold | 1.68 fold | 9.69 fold | 17 fold |  |  |  |  |  |  |  |  |  |  |  |  |  |  | 
2 | Cc1cn([C@H]2C[C@H](N=[N+]=[N-])[C@@H](CO)O2)c(=O)[nH]c1=O [AZT, zidovudine] | 6 fold and 7 fold and approximately six-fold and 6.87 fold | 17.82 fold | 160 fold and 140 fold and 141.71 fold |  | further reduce AZT susceptibility | significant decrease in both d4T and AZT susceptibility | increase in the susceptibility to AZT; also recorded: increased AZT susceptibility; also recorded: increased AZT susceptibility slightly | reduced susceptibility to d4T and AZT | increased AZT susceptibility slightly | slight increases in susceptibility to AZT; also recorded: did not alter the reduced level of AZT susceptibility caused by the V75I mutation | increased susceptibility to AZT |  |  |  |  |  |  |  | 
3 | Cc1cn([C@H]2C=C[C@@H](CO)O2)c(=O)[nH]c1=O [d4T, stavudine] | 1.66 fold | 1.61 fold | 5 fold and 5.20 fold |  | no effect on the susceptibility to d4T; also recorded: did not reduce d4T susceptibility more than the T69SSA mutation alone | significant decrease in both d4T and AZT susceptibility | did not alter d4T susceptibility; also recorded: did not reduce d4T susceptibility; also recorded: had no affect on d4T susceptibility | reduced susceptibility to d4T and AZT | did not reduce d4T susceptibility | no differences in their susceptibility to d4T; also recorded: had no effect on d4T; also recorded: had no affect on d4T susceptibility | decreased susceptibility to d4T | no effect on d4t-susceptibility | decreased susceptibility to d4T; also recorded: reduced d4T and AZT susceptibility | less than two-fold | reduced d4T resistance | 30 fold | cross-resistance |  | 
4 | Nc1ccn([C@H]2CC[C@@H](CO)O2)c(=O)n1 [ddC, zalcitabine] | 1.74 fold | 1.21 fold | 1.41 fold |  |  |  |  |  |  |  |  |  |  |  |  |  |  | two-fold | five-fold to ten-fold
5 | O=c1[nH]cnc2c1ncn2[C@H]1CC[C@@H](CO)O1 [ddI, didanosine] | 1.54 fold | 1.09 fold | 2.02 fold |  |  |  |  |  |  |  |  |  |  |  |  |  |  | 2.2 fold | three-fold to five-fold
